Measurements from patent US20050004167A1, “Branched chain amino acid-dependent aminotransferase inhibitors and their use in the treatment of neurodegenerative diseases” (WARNER-LAMBERT COMPANY LLC, priority 2001, published 2005).

Q: With `O=C(NNS(=O)(=O)c1ccccc1)c1ccc2ncccc2c1` (hydrate or solvate) [Example 13, Quinoline-6-carboxylic acid 2-(phenylsulfonyl)hydrazide] as the compound, how does the melting point read?
A: The melting point was 211 to 214 °C.

Q: For `O=C(NNS(=O)(=O)c1ccccc1)c1cccc2cccnc12` (hydrate or solvate) [Example 21, Quinoline-8-carboxylic acid 2-(phenylsulfonyl)hydrazide], which melting point is on record?
A: The melting point was 173 to 175 °C.

Q: With `O=C(NNS(=O)(=O)c1ccccc1)c1cc2cc([N+](=O)[O-])ccc2o1` (hydrate or solvate) [Example 34, 2-Benzofurancarboxylic acid, 5-nitro-, 2-(phenylsulfonyl)hydrazide] as the compound, how does the melting point read?
A: Its melting point is 207.7 to 208.1 °C.

Q: For `COc1cccc2cc(C(=O)NNS(=O)(=O)c3ccccc3C(F)(F)F)oc12` (hydrate or solvate) [Example 54, 2-Benzofurancarboxylic acid, 7-methoxy-, 2-[[2-(trifluoromethyl)phenyl]-sulfonyl]hydrazide], which melting point is on record?
A: The melting point was 156.8 to 157.6 °C.

Q: For `COc1cccc2cc(C(=O)NNS(=O)(=O)c3cccc(C)c3)oc12` (hydrate or solvate) [Example 55, 2-Benzofurancarboxylic acid, 7-methoxy-, 2-[(3-methylphenyl)sulfonyl]hydrazide], which melting point is on record?
A: The melting point was 170.8 to 171.8 °C.

Q: With `COc1ccc2cc(C(=O)NNS(=O)(=O)c3ccccc3)oc2c1` (hydrate or solvate) [Example 56, 2-Benzofurancarboxylic acid, 6-methoxy-, 2-(phenylsulfonyl)hydrazide] as the compound, how does the melting point read?
A: The melting point was 224.9 to 225.8 °C.

Q: With `COc1ccc2oc(C(=O)NNS(=O)(=O)c3ccccc3)c(OC(C)C)c2c1` (hydrate or solvate) [Example 57, 2-Benzofurancarboxylic acid, 5-methoxy-3-(1-methylethoxy), 2-(phenylsulfonyl)-hydrazide] as the compound, how does the melting point read?
A: The melting point was 127 to 129 °C.

Q: With `COc1cc(OC)c2cc(C(=O)NNS(=O)(=O)c3ccccc3)oc2c1` (hydrate or solvate) [Example 60, 2-Benzofurancarboxylic acid, 4,6-dimethoxy-, 2-(phenylsulfonyl)hydrazide] as the compound, how does the melting point read?
A: The melting point was 230.6 to 231 °C.

Q: For `COc1c(C(=O)NNS(=O)(=O)c2ccccc2)oc2c(OC)cccc12` (hydrate or solvate) [Example 61, 2-Benzofurancarboxylic acid, 3,7-dimethoxy-, 2-(phenylsulfonyl)hydrazide], which melting point is on record?
A: The melting point was 177.9 to 179.6 °C.

Q: For `COc1c(C(=O)NNS(=O)(=O)c2ccccc2C(F)(F)F)oc2c(OC)cccc12` (hydrate or solvate) [Example 62, 2-Benzofurancarboxylic acid, 3,7-dimethoxy-, 2-[(2-trifluoromethylphenyl)-sulfonyl]hydrazide], which melting point is on record?
A: Its melting point is 190.6 to 192.3 °C.

Q: With `COc1c(C(=O)NNS(=O)(=O)c2ccc(F)cc2)oc2c(OC)cccc12` (hydrate or solvate) [Example 63, 2-Benzofurancarboxylic acid, 3,7-dimethoxy-, 2-[(4-fluorophenyl)sulfonyl]-hydrazide] as the compound, how does the melting point read?
A: Its melting point is 190.9 to 191.1 °C.

Q: With `COc1c(C(=O)NNS(=O)(=O)c2cccc(C)c2)oc2c(OC)cccc12` (hydrate or solvate) [Example 64, 2-Benzofurancarboxylic acid, 3,7-dimethoxy-, 2-[(3-methylphenyl)sulfonyl]-hydrazide] as the compound, how does the melting point read?
A: The melting point was 179.4 to 180.9 °C.

Q: With `COc1c(C(=O)NNS(=O)(=O)c2ccccc2)oc2ccc(-c3ccccc3)cc12` (hydrate or solvate) [Example 65, 2-Benzofurancarboxylic acid, 3-methoxy-5-phenyl-, 2-(phenylsulfonyl)hydrazide] as the compound, how does the melting point read?
A: The melting point was 180.7 to 181.3 °C.

Q: For `COc1c(C(=O)NNS(=O)(=O)c2ccccc2)oc2c(-c3ccccc3)cccc12` (hydrate or solvate) [Example 67, 2-Benzofurancarboxylic acid, 3-methoxy-7-phenyl-, 2-(phenylsulfonyl)hydrazide], which melting point is on record?
A: The melting point was 186.7 to 187.3 °C.

Q: Which melting point does the source give for `COc1c(C(=O)NNS(=O)(=O)c2ccccc2)oc2cc3ccccc3cc12` (hydrate or solvate) [Example 68, Naptho[2,3-b]furan-2-carboxylic acid, 3-methoxy-, 2-(phenylsulfonyl)hydrazide] here?
A: The melting point was 205.7 to 207.1 °C.

Q: Which melting point does the source give for `O=C(NNS(=O)(=O)c1ccccc1Br)c1cc2cc(Cl)cc(Cl)c2o1` (hydrate or solvate) [Example 73, 2-Benzofurancarboxylic acid, 5,7-dichloro 2-[(2-bromophenyl)sulfonyl]-hydrazide] here?
A: Its melting point is 196.2 to 196.6 °C.

Q: Which melting point does the source give for `Cc1ccc2oc(C(=O)NNS(=O)(=O)c3ccccc3)cc2c1` (hydrate or solvate) [Example 77, Benzofurancarboxylic acid, 5-methyl-, 2-(phenylsulfonyl)hydrazide] here?
A: The melting point was 183.3 to 183.6 °C.

Q: With `COc1c(C(=O)NNS(=O)(=O)c2ccccc2)oc2ccc(Cl)cc12` (hydrate or solvate) [Example 78, 2-Benzofurancarboxylic acid, 5-chloro-3-methoxy, 2-(phenylsulfonyl)hydrazide] as the compound, how does the melting point read?
A: The melting point was 242.2 to 244.2 °C.

Q: With `Cc1ccc2oc(C(=O)NNS(=O)(=O)c3ccccc3C(F)(F)F)cc2c1` (hydrate or solvate) [Example 79, 2-Benzofurancarboxylic acid, 5-methyl-, 2-[[2-(trifluoromethyl)phenyl]sulfonyl]-hydrazide] as the compound, how does the melting point read?
A: The melting point was 194 to 195.4 °C.

Q: For `Cc1cccc(S(=O)(=O)NNC(=O)c2cc3cc(C)ccc3o2)c1` (hydrate or solvate) [Example 80, 2-Benzofurancarboxylic acid, 5-methyl-, 2-([3-methylphenyl)sulfonyl]hydrazide], which melting point is on record?
A: Its melting point is 184.1 to 186 °C.

Q: For `Cc1ccc2oc(C(=O)NNS(=O)(=O)c3ccccc3C)cc2c1` (hydrate or solvate) [Example 81, 2-Benzofurancarboxylic acid, 5-methyl-, 2-[2-(methylphenyl)sulfonyl]hydrazide], which melting point is on record?
A: The melting point was 174.5 to 174.7 °C.

Q: Which melting point does the source give for `Cc1ccc2oc(C(=O)NNS(=O)(=O)c3cccc(Cl)c3C)cc2c1` (hydrate or solvate) [Example 82, 2-Benzofurancarboxylic acid, 5-methyl-, 2-[(3-chloro-2-methylphenyl)sulfonyl]-hydrazide] here?
A: Its melting point is 182.4 to 184 °C.

Q: For `Cc1ccc2oc(C(=O)NNS(=O)(=O)c3cccc(Br)c3)cc2c1` (hydrate or solvate) [Example 83, 2-Benzofurancarboxylic acid, 5-methyl-, 2-[3-(bromophenyl)sulfonyl]hydrazide], which melting point is on record?
A: Its melting point is 207.2 to 209.9 °C.

Q: For `Cc1ccc2oc(C(=O)NNS(=O)(=O)c3cccc(Cl)c3)cc2c1` (hydrate or solvate) [Example 84, 2-Benzofurancarboxylic acid, 5-methyl-, 2-[(3-chlorophenyl)sulfonyl]hydrazide], which melting point is on record?
A: The melting point was 186.1 to 186.3 °C.

Q: With `Cc1ccc2oc(C(=O)NNS(=O)(=O)c3ccccc3OC(F)(F)F)cc2c1` (hydrate or solvate) [Example 85, 2-Benzofurancarboxylic acid, 5-methyl-, 2-[[2-(trifluoromethoxy)phenyl]-sulfonyl]hydrazide] as the compound, how does the melting point read?
A: The melting point was 226.7 to 227 °C.

Q: With `Cc1cccc2cc(C(=O)NNS(=O)(=O)c3ccccc3)oc12` (hydrate or solvate) [Example 86, 2-Benzofurancarboxylic acid, 7-methyl-, 2-(phenylsulfonyl)hydrazide] as the compound, how does the melting point read?
A: The melting point was 217.5 to 218 °C.

Q: For `Cc1cccc2oc(C(=O)NNS(=O)(=O)c3ccccc3)cc12` (hydrate or solvate) [Example 87, 2-Benzofurancarboxylic acid, 4-methyl-, 2-(phenylsulfonyl)hydrazide], which melting point is on record?
A: The melting point was 217 to 218 °C.

Q: With `Cc1c(C(=O)NNS(=O)(=O)c2ccccc2)oc2ccccc12` (hydrate or solvate) [Example 88, 2-Benzofurancarboxylic acid, 3-methyl-, 2-(phenylsulfonyl)hydrazide] as the compound, how does the melting point read?
A: The melting point was 221.6 to 222.2 °C.

Q: With `Cc1ccc2oc(C(=O)NNS(=O)(=O)c3ccccc3)c(C)c2c1` (hydrate or solvate) [Example 89, 2-Benzofurancarboxylic acid, 3,5-dimethyl-, 2-(phenylsulfonyl)hydrazide] as the compound, how does the melting point read?
A: Its melting point is 225.9 to 227.1 °C.

Q: Which melting point does the source give for `Cc1c(C(=O)NNS(=O)(=O)c2ccccc2)oc2ccc(Cl)cc12` (hydrate or solvate) [Example 90, 2-Benzofurancarboxylic acid, 5-chloro-3-methyl, 2-(phenylsulfonyl)hydrazide] here?
A: Its melting point is 246.8 to 247.8 °C.

Q: For `Nc1ccc2oc(C(=O)NNS(=O)(=O)c3ccccc3)cc2c1` (hydrate or solvate) [Example 91, 2-Benzofurancarboxylic acid, 5-amino-, 2-(phenylsulfonyl)hydrazide], which melting point is on record?
A: Its melting point is 206.9 to 207.7 °C.

Q: For `Cc1cccc(S(=O)(=O)NNC(=O)c2ccc3ncccc3c2)c1` (hydrate or solvate) [Example 128, 6-Quinolinecarboxylic acid, 2-[(3-methylphenyl)sulfonyl]hydrazide], which melting point is on record?
A: Its melting point is 234 to 234.6 °C.

Q: With `Cc1cccc(S(=O)(=O)NNC(=O)c2cnc3ccccc3c2)c1` (hydrate or solvate) [Example 129, 3-Quinolinecarboxylic acid, 2-[(3-methylphenyl)sulfonyl]hydrazide] as the compound, how does the melting point read?
A: Its melting point is 238.6 to 239.4 °C.

Q: With `O=C(NNS(=O)(=O)c1cccc(Cl)c1)c1ccc2ncccc2c1` (hydrate or solvate) [Example 130, 6-Quinolinecarboxylic acid, 2-[(3-chlorophenyl)sulfonyl]hydrazide] as the compound, how does the melting point read?
A: The melting point was 238.4 to 239.1 °C.

Q: With `O=C(NNS(=O)(=O)c1cccc(Cl)c1)c1cnc2ccccc2c1` (hydrate or solvate) [Example 131, 3-Quinolinecarboxylic acid, 2-[(3-chlorophenyl)sulfonyl]hydrazide] as the compound, how does the melting point read?
A: The melting point was 249.5 to 250.4 °C.

Q: With `O=C(NNS(=O)(=O)c1cccc(F)c1)c1ccc2ncccc2c1` (hydrate or solvate) [Example 132, 6-Quinolinecarboxylic acid, 2-[(3-fluorophenyl)sulfonyl]hydrazide] as the compound, how does the melting point read?
A: Its melting point is 250.6 to 251.3 °C.

Q: Which melting point does the source give for `O=C(NNS(=O)(=O)c1cccc(F)c1)c1cnc2ccccc2c1` (hydrate or solvate) [Example 133, 3-Quinolinecarboxylic acid, 2-[(3-fluorophenyl)sulfonyl]hydrazide] here?
A: The melting point was 247.8 to 248.4 °C.
